Tests used:
Test in all cases: relative viability (nuclei count vs DMSO), 5 days (fraction); higher = more cells survive
[1] = compound: CCn1c(-c2nonc2N)nc2c(C#CC(C)(C)O)ncc(OC[C@H]3CCCNC3)c21 + O=C(CCCCCCC(=O)Nc1ccccc1)NO [Vorinostat] (partner 1 µM)
Procedure, shortened: (§1)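 Lung cancer cell lines in 1536-well plates were dosed by pin tool the day after seeding, either with one drug alone or with a fixed anchor-drug dose plus five library-drug doses (not always all listed) in √10 steps. After 5 days, cells were fixed and their nuclei stained in one step (final 0.05% Triton X-100, 1% formaldehyde, 1 ug/ml Hoechst), then counted on 4× images. Relative viability is the nuclei count in treated wells divided by that in vehicle wells. Values are medians of duplicate plates.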

[2] = compound: CCn1c(-c2nonc2N)nc2c(C#CC(C)(C)O)ncc(OC[C@H]3CCCNC3)c21 + Cc1nc(Nc2ncc(C(=O)Nc3c(C)cccc3Cl)s2)cc(N2CCN(CCO)CC2)n1 [Dasatinib] (partner 0.075 µM)
Procedure, shortened: as §1

[3] = compound: CCOC1=CC=CC=C1N=NC2=C(NN(C2=O)C3=NC(=CS3)C4=CC=CC=C4)C [BAM7] + O=C(CCCCCCC(=O)Nc1ccccc1)NO [Vorinostat] (partner 1 µM)
Procedure, shortened: as §1

[4] = compound: CCn1c(-c2nonc2N)nc2c(C#CC(C)(C)O)ncc(OC[C@H]3CCCNC3)c21 + Nc1ncn([C@H]2C[C@H](O)[C@@H](CO)O2)c(=O)n1 [Decitabine] (partner 2 µM)
Procedure, shortened: as §1

Cell Line | relative viability ([1]; first compound 0.01 µM) | relative viability ([1]; first compound 0.03162 µM) | relative viability ([1]; first compound 0.1 µM) | relative viability ([1]; first compound 0.3162 µM) | relative viability ([1]; first compound 1 µM) | relative viability ([2]; first compound 0.01 µM) | relative viability ([2]; first compound 0.03162 µM) | relative viability ([2]; first compound 0.1 µM) | relative viability ([2]; first compound 0.3162 µM) | relative viability ([2]; first compound 1 µM) | relative viability ([3]; first compound 0.5 µM) | relative viability ([3]; first compound 5 µM) | relative viability ([3]; first compound 15.81 µM) | relative viability ([3]; first compound 50 µM) | relative viability ([4]; first compound 0.01 µM) | relative viability ([4]; first compound 0.03162 µM) | relative viability ([4]; first compound 0.1 µM) | relative viability ([4]; first compound 0.3162 µM) | relative viability ([4]; first compound 1 µM)
NCI-H2342 | 0.713 | 0.647 | 0.579 | 0.724 | 0.782 | 0.286 | 0.304 | 0.32 | 0.317 | 0.33 | 0.72 | 0.736 | 0.709 | 0.8 | 0.747 | 0.692 | 0.773 | 0.667 | 0.625
SK-MES-1 | 1.08 | 1.1 | 1.1 | 1.05 | 1.1 | 0.359 | 0.386 | 0.446 | 0.447 | 0.373 | 1.04 | 1.06 | 1.05 | 1.04 | 0.329 | 0.397 | 0.399 | 0.353 | 0.378
HCC-366 | 0.278 | 0.3 | 0.329 | 0.367 | 0.372 | 0.597 | 0.6 | 0.602 | 0.593 | 0.606 | 0.301 | 0.28 | 0.356 | 0.344 | 0.342 | 0.34 | 0.361 | 0.302 | 0.335
201T | 0.952 | 0.995 | 0.919 | 0.894 | 0.958 | 0.576 | 0.644 | 0.516 | 0.51 | 0.597 | 0.797 | 0.78 | 0.716 | 0.71 | 0.879 | 0.822 | 0.888 | 0.837 | 0.866
HCC-827 | 0.86 | 0.866 | 0.831 | 0.76 | 0.834 | 0.242 | 0.34 | 0.296 | 0.354 | 0.335 | 0.806 | 1 | 1.01 | 0.789 | 0.348 | 0.319 | 0.331 | 0.308 | 0.308
NCI-H647 | 0.616 | 0.491 | 0.603 | 0.358 | 0.587 | 0.193 | 0.224 | 0.184 | 0.152 | 0.164 | 0.4 | 0.532 | 0.556 | 0.712 | 0.384 | 0.379 | 0.407 | 0.299 | 0.371
NCI-H2023 | 0.615 | 0.642 | 0.58 | 0.394 | 0.488 | 0.454 | 0.572 | 0.492 | 0.388 | 0.344 | 0.635 | 0.577 | 0.605 | 0.589 | 0.207 | 0.202 | 0.221 | 0.245 | 0.236
NCI-H520 | 0.706 | 0.711 | 0.585 | 0.543 | 0.5 | 0.223 | 0.2 | 0.181 | 0.159 | 0.134 | 0.801 | 0.866 | 0.702 | 0.718 | 0.483 | 0.47 | 0.387 | 0.359 | 0.332
RERF-LC-KJ | 0.665 | 0.595 | 0.684 | 0.574 | 0.628 | 0.708 | 0.815 | 0.748 | 0.678 | 0.565 | 0.62 | 0.601 | 0.485 | 0.416 | 0.694 | 0.643 | 0.684 | 0.59 | 0.656
A-427 | 0.857 | 0.858 | 0.844 | 0.783 | 0.889 | 0.624 | 0.716 | 0.729 | 0.729 | 0.793 | 0.829 | 0.876 | 0.834 | 0.852 | 0.558 | 0.61 | 0.589 | 0.54 | 0.562
NCI-H1792 |  |  |  |  |  | 0.758 |  | 0.818 | 0.705 | 0.897 |  |  |  |  | 0.558 | 0.499 | 0.547 | 0.419 | 0.518
HCC-44 | 1.07 | 1.07 | 1.05 | 1.07 | 1.04 |  |  |  |  |  | 1.02 | 1.11 | 1.04 | 1.07 | 0.957 | 0.888 | 0.902 | 0.968 | 0.985
NCI-H2228 | 0.539 | 0.828 | 0.409 | 0.7 | 0.497 | 0.451 | 0.526 | 0.583 | 0.482 | 0.353 | 0.448 | 0.586 | 0.552 | 0.59 |  |  |  |  | 
NCI-H1648 | 0.591 | 0.418 | 0.365 | 0.367 | 0.315 |  |  |  |  |  | 0.283 | 0.6 | 0.408 | 0.348 | 0.565 | 0.482 | 0.464 | 0.491 | 0.498
NCI-H1563 |  |  |  |  |  | 0.449 | 0.437 | 0.441 | 0.511 | 0.446 |  |  |  |  |  |  |  |  | 
A549 |  |  |  |  |  |  |  |  |  |  |  |  |  |  | 0.207 | 0.202 | 0.292 | 0.27 | 0.215
NCI-H1623 |  |  |  |  |  | 0.567 | 0.482 | 0.548 | 0.438 | 0.453 |  |  |  |  |  |  |  |  | 
IA-LM | 1.04 | 0.961 | 0.953 | 0.859 | 1 |  |  |  |  |  | 0.874 | 1.03 | 0.389 | 0.553 |  |  |  |  | 
CAL-12T | 0.747 | 0.679 | 0.683 | 0.675 | 0.603 | 0.404 | 0.459 | 0.343 | 0.323 | 0.326 | 0.794 | 0.788 | 0.751 | 0.655 |  |  |  |  | 

From the supplement of paper PMC10307832
